The record followed here is US12390472B2 (SUZHOU SINOVENT PHARMACEUTICALS CO., LTD., priority 2018, dated 2025).

One series concerns the target EZH2 (Y641F) (Homo sapiens (Human), UniProt Q15910, Y641F). The series is described as follows: Test on EZH2 (Y641F) inhibitory activity. In kind it is biochemical.
The target of another series is EZH2 (wt) (Homo sapiens (Human), UniProt Q15910). Kind of series: Test on EZH2 (wt) inhibitory activity ([3H]-SAM Flashplate). The format is biochemical.
Series [1] can be described thus: In vivo pharmacokinetic properties in mice. Also noted: species or system mouse. The conditions noted are these: male ICR mice. The method in brief: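 Male ICR mice, n=3 per group, dosed once at 5 mg/kg IV in 10% DMSO/90% (20% Captisol) or 250 mg/kg intragastrically in 0.5% CMC-Na/0.1% Tween 80 (pH 3-4). EDTA-K2 plasma sampled from 5 min to 24 h; compound levels measured by LC-MS/MS.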

The next series has as its target EZH2 (Y641N) (Homo sapiens (Human), UniProt Q15910, Y641N). Kind of series: Test on EZH2 (Y641N) inhibitory activity. In kind it is biochemical.
For a further series, the target named is EZH2 enzyme complex (Homo sapiens (Human), UniProt Q15910). The series is described as follows: Test on EZH2 inhibitory activity (TR-FRET). The format is biochemical. Conditions: EZH2 enzyme complex 25 ng/uL, histone H3 peptide 4 uM, SAM 2 uM, 300 min; read-out: IC50 of EZH2 inhibition. A general note: Time-resolved FRET reads energy transfer from a long-lived donor to a nearby acceptor.
Sequence of EZH2 enzyme complex (Q15910 whole entry): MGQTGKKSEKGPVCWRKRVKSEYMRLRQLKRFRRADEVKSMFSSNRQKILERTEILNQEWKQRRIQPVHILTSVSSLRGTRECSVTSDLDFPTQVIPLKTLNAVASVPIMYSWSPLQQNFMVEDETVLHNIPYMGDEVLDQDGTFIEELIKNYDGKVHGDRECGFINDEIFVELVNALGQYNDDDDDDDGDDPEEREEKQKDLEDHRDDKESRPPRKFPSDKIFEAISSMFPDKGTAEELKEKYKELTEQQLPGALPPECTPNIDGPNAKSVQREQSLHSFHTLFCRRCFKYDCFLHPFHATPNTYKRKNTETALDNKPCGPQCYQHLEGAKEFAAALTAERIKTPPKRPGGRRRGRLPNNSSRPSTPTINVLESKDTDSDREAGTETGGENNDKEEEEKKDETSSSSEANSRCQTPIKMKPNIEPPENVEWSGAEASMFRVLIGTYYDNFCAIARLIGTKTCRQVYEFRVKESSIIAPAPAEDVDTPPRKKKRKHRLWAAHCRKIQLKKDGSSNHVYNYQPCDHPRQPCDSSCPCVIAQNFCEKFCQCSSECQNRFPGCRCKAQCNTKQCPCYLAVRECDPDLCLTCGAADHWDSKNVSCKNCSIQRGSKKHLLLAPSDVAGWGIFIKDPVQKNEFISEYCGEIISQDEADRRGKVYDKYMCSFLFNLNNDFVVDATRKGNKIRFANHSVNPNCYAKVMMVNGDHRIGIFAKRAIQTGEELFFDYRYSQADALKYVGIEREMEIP
Sequence of EZH2 enzyme complex (O75530 whole entry partner): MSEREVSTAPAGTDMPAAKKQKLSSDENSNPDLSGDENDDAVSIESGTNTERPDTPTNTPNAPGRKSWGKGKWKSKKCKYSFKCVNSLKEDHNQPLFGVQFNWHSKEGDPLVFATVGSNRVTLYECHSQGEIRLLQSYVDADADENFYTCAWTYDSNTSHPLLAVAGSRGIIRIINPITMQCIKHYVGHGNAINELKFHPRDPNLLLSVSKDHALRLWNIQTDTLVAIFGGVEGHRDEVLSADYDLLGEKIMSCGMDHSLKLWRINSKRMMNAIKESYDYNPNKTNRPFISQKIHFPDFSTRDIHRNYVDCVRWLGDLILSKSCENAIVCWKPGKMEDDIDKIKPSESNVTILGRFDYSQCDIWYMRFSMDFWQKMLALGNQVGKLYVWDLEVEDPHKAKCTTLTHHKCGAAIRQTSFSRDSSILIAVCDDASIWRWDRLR
Sequence of EZH2 enzyme complex (Q15022 whole entry partner): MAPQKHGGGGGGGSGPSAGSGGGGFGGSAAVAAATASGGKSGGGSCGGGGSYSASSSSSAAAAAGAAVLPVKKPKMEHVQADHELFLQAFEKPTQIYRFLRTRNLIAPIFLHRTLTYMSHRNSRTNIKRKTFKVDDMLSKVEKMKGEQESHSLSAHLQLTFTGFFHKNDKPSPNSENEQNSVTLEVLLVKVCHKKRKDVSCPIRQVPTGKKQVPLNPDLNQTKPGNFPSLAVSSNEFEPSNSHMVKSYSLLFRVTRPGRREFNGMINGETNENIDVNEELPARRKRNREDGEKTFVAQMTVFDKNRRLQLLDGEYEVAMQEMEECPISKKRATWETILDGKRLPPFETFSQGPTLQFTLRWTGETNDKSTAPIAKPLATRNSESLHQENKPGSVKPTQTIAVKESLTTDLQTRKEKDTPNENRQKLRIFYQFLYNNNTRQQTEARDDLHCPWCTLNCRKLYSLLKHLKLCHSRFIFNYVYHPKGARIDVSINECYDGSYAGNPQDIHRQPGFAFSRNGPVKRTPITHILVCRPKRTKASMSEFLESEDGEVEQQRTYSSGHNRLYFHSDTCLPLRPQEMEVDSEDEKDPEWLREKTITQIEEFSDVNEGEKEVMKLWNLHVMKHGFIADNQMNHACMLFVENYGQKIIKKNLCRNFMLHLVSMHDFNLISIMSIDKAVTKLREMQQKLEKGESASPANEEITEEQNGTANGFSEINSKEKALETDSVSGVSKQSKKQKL

Sequence of EZH2 (Y641N) (Q15910 whole entry Y641N): as the sequence (Q15910 whole entry) above, with Y641N counted along it
Sequence of EZH2 (Y641N) (O75530 whole entry partner): as the sequence (O75530 whole entry partner) above
Sequence of EZH2 (Y641N) (Q15022 whole entry partner): as the sequence (Q15022 whole entry partner) above
Sequence of EZH2 (wt) (Q15910 whole entry): as the sequence (Q15910 whole entry) above
Sequence of EZH2 (wt) (O75530 whole entry partner): as the sequence (O75530 whole entry partner) above
Sequence of EZH2 (wt) (Q15022 whole entry partner): as the sequence (Q15022 whole entry partner) above
Sequence of EZH2 (Y641F) (Q15910 whole entry Y641F): as the sequence (Q15910 whole entry) above, with Y641F counted along it
Sequence of EZH2 (Y641F) (O75530 whole entry partner): as the sequence (O75530 whole entry partner) above
Sequence of EZH2 (Y641F) (Q15022 whole entry partner): as the sequence (Q15022 whole entry partner) above

On to `CCN(c1cc(O[C@H]2C[C@H](N3C[C@@H](C)O[C@@H](C)C3)C2)cc(C(=O)NCc2c(C)cc(C)[nH]c2=O)c1C)C1CCC(F)(F)CC1` [Example 45, 3-((4,4-difluorocyclohexyl)(ethyl)amino)-N-((4,6-dimethyl-2-oxo-1,2-dihydropyridin-3-yl)methyl)-5-(trans-3-(cis-2,6-dimethylmorpholinyl)cyclobutoxy)-2-methylbenzamide], for which the IC50 at EZH2 (Y641F) was 3 nM; on EZH2 (wt) it was 2.3 nM; against EZH2 (Y641N), 5.2 nM; at EZH2 enzyme complex, 10 to 100 nM. The same molecule returned a F in series [1] (intragastric 250 mg/kg vs intravenous 5 mg/kg) of 43.5%. Besides, in series [1] (single intravenous 5 mg/kg and intragastric 250 mg/kg study), the CL was determined as 37.0 ± 8.82 mL/min/lg. Besides, the AUC(0-inf) in series [1] (mouse, plasma, oral, single intravenous 5 mg/kg and intragastric 250 mg/kg study) came to 50900 ng·h/mL. The Cmax in series [1] (mouse, plasma, oral, single intravenous 5 mg/kg and intragastric 250 mg/kg study, read-out: Cmax) was 10500 ± 436 ng/mL. Besides, in series [1] (mouse, plasma, oral, single intravenous 5 mg/kg and intragastric 250 mg/kg study, read-out: Tmax), the Tmax is 1 h. The molecule further showed a half-life in series [1] (mouse, plasma, single intravenous 5 mg/kg and intragastric 250 mg/kg study) of 7.44 ± 2.75 h.

By IC50 is commonly meant the concentration at which inhibition is half-maximal. What is called AUC(0-inf) is total exposure, with the tail of the curve extrapolated. A low value points to less exposure. As usually defined, the Cmax is the highest concentration seen after dosing. The term Tmax denotes the time from dosing to the highest level. The term half-life denotes how long it takes for the measured level to halve. High values mean slow decline, low ones rapid decline.
